Reference: US20040023362A1, “Degradation of polycyclic aromatic hydrocarbons by microorganisms” (priority 2000, published 2004)
Converted amounts (≈) assume the structure as drawn.

Key:
[1] = tested on: VUN 10,010; assay: Degradation of high molecular weight PAHs by axenic cultures; type: cell-based, Stenotrophomonas maltophilia
Experimental: (§1) PAH concentrations in the DCM extracts were measured on a Varian Star 3400 gas chromatograph, equipped with a flame ionization detector, using a BPX-5 capillary column (25 m×0.22 mm). The nitrogen carrier flow rate was 0.8 ml min^−1 with a pressure of 20 psi under split conditions (95:1). The oven temperature was programmed at 200° C. for 1 min, followed by a linear increase of 10° C. min^−1 to 320° C.; this temperature was held for 15 min. Injector and detector temperatures were maintained at 300° C. The peak areas of both internal standard and PAH were used to calculate peak area ratios. Ratios obtained for each sample, as well as controls, were compared to those of PAH standards.
(§2) PAH degradation experiments using axenic bacterial and fungal cultures, and fungal-bacterial co-culture, were performed in 30 ml reaction vials containing 10 ml of medium. Before inoculation, 0.1 ml of PAH stock solution (either single PAH or mixed PAH stock as described above) was introduced into the medium. This medium was then inoculated with microorganisms to produce either axenic cultures or co-cultures. Axenic cultures were inoculated with either bacteria (1 ml) to provide an initial cell population of approximately 10^4 cells ml^−1, or with mycelial pellets (0.25 g wet weight) in 10 ml of BSM. For the co-culture experiments, BSM (10 ml) contained bacteria (10^4 cells ml^−1) and 0.25 g wet weight of mycelial pellets. Experiments to investigate of co-metabolic PAH degradation by P. janthinellum were conducted with the PAH in BSM supplemented with glucose (1% final concentration) or MYPD medium. […] Medium (10 ml) was inoculated with fungal or bacterial culture using the same inoculum size as described above. All cultures were aseptically flushed with filtered (0.22 μm) air (0.2 litres min^−1) for 5 seconds on the day of inoculation and every 7 days thereafter. Abiotic controls were sterile medium containing only PAH(s). Killed-cell controls were the PAH-containing medium inoculated with a killed microbial population. The experimental cultures were conducted in triplicate, and all controls were run in duplicate. All cultures were incubated in the dark at 30° C./175 rpm. At designated time intervals the entire culture (10 ml) was sacrificed for the PAH-extraction procedure and biomass determinations.

[2] = tested on: Bacterial consortium VUN 10,009; assay: as above; type: cell-based
Experimental: as §1, §2

[3] = tested on: S. maltophilia VUN 10,010; assay: Degradation of single high molecular weight PAHs by high initial populations of VUN 10,010 with surfactant; type: cell-based, Stenotrophomonas maltophilia
Experimental: […] Incubations contained a single PAH in BSM at 30° C. The PAH remaining was calculated as a percentage relative to the PAH recovered from the […]. Averages for the test cultures are from triplicate experiments.
Tergitol NP-10 (5 and 10 g l^−1) was added to BSM broths each containing a single high molecular weight PAH.

[4] = tested on: S. maltophilia VUN 10,010; assay: Degradation of a PAH mixture by VUN 10,010 with surfactant, low initial cell population; type: cell-based, Stenotrophomonas maltophilia; details: for Maximum Specific Degradation Rate: — = not appreciable
Experimental: The incubations were conducted in BSM at 30° C., using low initial cell populations. The PAH remaining was calculated as a percentage relative to the PAH recovered from the uninoculated control. Averages for the test cultures are from triplicate experiments.
A low initial cell population of around 9×10^3 cells ml^−1 was used.

[5] = tested on: P. janthinellum VUO 10,201; assay: Degradation of high molecular weight PAHs by axenic cultures; type: cell-based, Penicillium janthinellum
Experimental: as §1, §2

[6] = physchem
Experimental: PAHs (approximately 1 g l^−1) were added to a 10 ml solution of BSM plus surfactant in a 30 ml glass reaction vial, which was sealed with an aluminium cap fitted with a septum. Surfactant concentrations corresponded to levels above, below, and at the CMC, and replicates were set up to allow sampling in duplicate at different time intervals up to 72 h. Incubation was performed at 30° C. and 175 rpm. The entire vial contents was collected by syringe and expressed through a preconditioned membrane filter (0.22 μm, Sartorius AG, Germany) to remove solid-phase crystalline PAH while allowing solubilized PAH in the aqueous phase and micellar pseudophase to pass into sterile vials. The filter was preconditioned by purging the filter with a few mls of sample solution to allow sorption saturation of the internal surfaces of the syringe, filter and needle. The filtrates were extracted with dichloromethane (DCM), and the concentration of solubilized PAH was determined by GC-FID as described below.
The effectiveness of a particular surfactant in solubilizing a given PAH can be assessed by determining the molar solubilization ratio (MSR) and micelle/water partition coefficient (Km). In our study, the concentrations of added PAHs were well in excess of aqueous saturation concentrations; therefore the MSR value of each compound can be obtained from the slope of the curve generated from a plot of PAH concentration versus surfactant concentration for surfactant concentrations above CMC (Edwards et al, 1991).
Km values can be determined from the measured MSR values according to the following equation (Edwards et al, 1991): [formula]
^SPAH, CMC is the apparent solubility of the PAH (mol l^−1) at surfactant CMC. VW is the molar volume of water at 30° C. ie. 0.018015 l mol^−1(Rogers and Mayhew, 1981).

[7] = tested on: strain VUN 10,010; assay: Agar (well) diffusion toxicity test of surfactants; type: cell-based, Stenotrophomonas maltophilia; details: peptone-glucose agar, 30° C.
Experimental: The agar diffusion method was used to determine the effects of surfactants on growth by observing zones of inhibition on peptone-glucose agar (Cserhali et al, 1991). The medium contained per litre: 5 g peptone, 5 g glucose, 0.5 g NaCl, 3 g beef extract, 20 g agar; the pH was adjusted to 7.0 and sterilized by autoclaving for 15 min at 121° C. Bacterial cultures were mixed with the molten medium (25 ml) to obtain an inoculum size of approximately 10^8 cells ml^−1, and this was poured into a Petri dish. Once the cell-medium mixture had solidified, 7 mm diameter holes were made, and 150 μl of aqueous surfactant solutions was added (0.1-10.0 g l^−1). Growth inhibition zones were observed after 48-72 h at 30° C.

[8] = BSM + PYR (pyrene 250 mg l^−1), 28 day samples
[9] = Tergitol NP-10 5 g l^−1, Single PAH
[10] = Tergitol NP-10 10 g l^−1, Single PAH
[11] = Tergitol NP-10 5 g l^−1, Mixed PAH

SMILES	PAH removal (%) [1, 8]	PAH removal (%) ([1]; BSM, 56 day samples)	PAH removal (%) [2, 8]	PAH removal (%) ([2]; BSM, 56 day samples)	Maximum Specific Degradation Rate ([3]; Brij 35 5 g l^−1, Single PAH)	percentage change in maximum specific degradation rate due to surfactant addition ([3]; Brij 35 5 g l^−1, Single PAH)	Maximum Specific Degradation Rate ([3]; Brij 35 10 g l^−1, Single PAH)	percentage change in maximum specific degradation rate due to surfactant addition ([3]; Brij 35 10 g l^−1, Single PAH)	Maximum Specific Degradation Rate ([3]; No Surfactant, Single PAH)	Maximum Specific Degradation Rate [3, 9]	percentage change in maximum specific degradation rate due to surfactant addition [3, 9]	Maximum Specific Degradation Rate [3, 10]	percentage change in maximum specific degradation rate due to surfactant addition [3, 10]	Maximum Specific Degradation Rate ([4]; No Surfactant, Mixed PAH)	percentage change in maximum specific degradation rate due to surfactant addition [4, 11]	Maximum Specific Degradation Rate [4, 11]	PAH removal (%) ([5]; BSM, 56 day samples)	PAH removal (%) ([5]; BSM^g, 28 day samples)	PAH removal (%) ([5]; MYPD, 28 day samples)	further results
c1ccc2cc3c(ccc4ccccc43)cc2c1 [Benz[a]anthracene, benz[a]anthracene]	19.84 + 0.3%	8.2 ± 1.6%	9.6 + 0.7%	7.8 ± 0.3%	7.18 mg PAH degraded mg^−1 protein day^−1	+63%	7.37 mg PAH degraded mg^−1 protein day^−1	+67%	4.41 mg PAH degraded mg^−1 protein day^−1	9.66 mg PAH degraded mg^−1 protein day^−1	+119%	11.14 mg PAH degraded mg^−1 protein day^−1	+153%	1.71 mg PAH degraded mg^−1 protein day^−1	+90%	3.25 mg PAH degraded mg^−1 protein day^−1	9.1 ± 1.4%	18.1 ± 2.3%	23.1 ± 1.2%	
c1ccc2c(c1)cc1ccc3cccc4ccc2c1c34 [Benzo[a]pyrene, benzo[a]pyrene]	32.2 + 1.2%	12.3 ± 1.0%	23.3 + 0.5%	6.7 ± 0.9%	5.84 mg PAH degraded mg^−1 protein day^−1	−6%	5.47 mg PAH degraded mg^−1 protein day^−1	−12%	6.21 mg PAH degraded mg^−1 protein day^−1	6.73 mg PAH degraded mg^−1 protein day^−1	+8%	7.90 mg PAH degraded mg^−1 protein day^−1	27%	1.43 mg PAH degraded mg^−1 protein day^−1	+201%	4.30 mg PAH degraded mg^−1 protein day^−1	16.9 ± 0.2%	56.5 ± 2.4%	72.2 ± 3.2%	solubility ([6]; 30° C.): ~0.0159 µM (≈ 0.00401 µg/mL); solubility ([6]; 30 °C, aqueous with cosolvent or surfactant or cyclodextrin, thermodynamic from solid): 160 to 180 µM (≈ 40.4 to 45.4 µg/mL)
CCCCCCCCCCCCCCCC[N+](C)(C)C.[Br-] [CTAB]																				inhibitory concentration in well diffusion toxicity test [7]: 0.01 to 0.05 g/L
c1ccc2c(c1)ccc1c3ccccc3ccc21 [Chrysene, chrysene]	28.3 + 1.2%	9.1 ± 1.2%	12.1 + 0.4%	8.2 ± 0.5%	7.35 mg PAH degraded mg^−1 protein day^−1	+64%	7.93 mg PAH degraded mg^−1 protein day^−1	+77%	4.49 mg PAH degraded mg^−1 protein day^−1	6.44 mg PAH degraded mg^−1 protein day^−1	+43%	4.16 mg PAH degraded mg^−1 protein day^−1	−7%	1.42 mg PAH degraded mg^−1 protein day^−1	+94%	2.76 mg PAH degraded mg^−1 protein day^−1	12.2 ± 0.4%	25.6 ± 1.9%	31.7 ± 3.7%	PAH degradation rate in the presence of surfactants ([3]; Tergitol NP-10 5 and 10 g l^−1, high initial cell population): did not show improved PAH degradation rate
c1ccc2c(c1)ccc1cc3c(ccc4ccccc43)cc12 [Dibenz[a,h]anthracene, dibenz[a,h]anthracene]	26.7 + 0.7%	7.8 ± 0.6%	13.8 + 0.9%	5.9 ± 0.5%	6.26 mg PAH degraded mg^−1 protein day^−1	+50%	7.20 mg PAH degraded mg^−1 protein day^−1	+73%	4.17 mg PAH degraded mg^−1 protein day^−1	7.32 mg PAH degraded mg^−1 protein day^−1	+76%	8.74 mg PAH degraded mg^−1 protein day^−1	110%	1.20 mg PAH degraded mg^−1 protein day^−1	+140%	2.89 mg PAH degraded mg^−1 protein day^−1	12.9 ± 0.3%	24.4 ± 2.7%	36.7 ± 1.7%	concentration in the aqueous phase ([6]; at surfactant CMC, gas chromatograph): below the detection limit
c1cc2ccc3cccc4ccc(c1)c2c34 [Pyrene, pyrene]		100.0 ± 0.0%		100.0 ± 0.0%													3.3 ± 0.3%	80.3 ± 2.8%	93.6 ± 2.8%	
CCCCCCCCCCCCOS(=O)(=O)[O-].[Na+] [SDS]																				MIC [7]: 0.2 g/L
